Here are results for 27 compounds from patent publication US20220047569A1, “METHOD AND COMPOUND FOR USE, IN TREATING AND/OR PREVENTING NETOSIS” (Jubilant EpiPad LLC, priority 2020, published 2022).

Where a name gives a salt, the structure may show the parent alone. Bounds are passed on as bounds.

The experiment relates to Histone H3 Citrullination in Neutrophils. Put plainly: Citrullination ELISA (Citrullinated Histone H3) in calcium ionophore stimulated neutrophils. The experiment is classed as cell-based. Particulars: Neutrophil; human neutrophils, 25 μM calcium ionophore, CitH3 ELISA. The gist of the method: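 Freshly isolated human donor neutrophils in RPMI with 2% BSA and 1 mM CaCl2 were pre-incubated 30 min with compound (10, 1, 0.1 μM), then stimulated 30 min with 25 μM calcium ionophore. After S7 nuclease digestion, lysates were assayed by citrullinated histone H3 ELISA (450 nm); IC50 from sigmoidal fits.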
For orientation: ELISA stands for enzyme-linked immunosorbent assay.

One may read the IC50 as the point on the concentration scale where inhibition reaches its midpoint.

For the compound `CC(C)Cn1c(-c2nc3cc(C(=O)N4CCC[C@@H](N)C4)cc4c3n2CCO4)cc2ccccc21` [Compound 117, (R)-(3-aminopiperidin-1-yl)(2-(1-isobutyl-1H-indol-2-yl)-3,4-dihydro-5-oxa-1,2a-diazaacenaphthylen-7-yl)methanone], the IC50 was 100 to 1000 nM. Regarding `COc1ccc2cc(-c3nc4cc(C(=O)N5CCC[C@@H](N)C5)cc5c4n3CCO5)n(Cc3ncccc3F)c2c1` [Compound 119, (R)-(3-aminopiperidin-1-yl)(2-(1-((3-fluoropyridin-2-yl)methyl)-6-methoxy-1H-indol-2-yl)-3,4-dihydro-5-oxa-1,2a-diazaacenaphthylen-7-yl)methanone], the IC50 lay within 100 to 1000 nM. On to `N[C@@H]1CCCN(C(=O)c2cc3c4c(c2)nc(-c2cc5cccc(Cl)c5n2Cc2ncccc2F)n4CCO3)C1` [Compound 120, (R)-(3-aminopiperidin-1-yl)(2-(7-chloro-1-((3-fluoropyridin-2-yl)methyl)-1H-indol-2-yl)-3,4-dihydro-5-oxa-1,2a-diazaacenaphthylen-7-yl)methanone], for which the IC50 lay in the range of 100 to 1000 nM.

In the case of `N[C@@H]1CCCN(C(=O)c2cc3c4c(c2)nc(-c2cc5ccc(F)cc5n2Cc2ncccc2F)n4CCO3)C1` [Compound 121, (R)-(3-aminopiperidin-1-yl)(2-(6-fluoro-1-((3-fluoropyridin-2-yl)methyl)-1H-indol-2-yl)-3,4-dihydro-5-oxa-1,2a-diazaacenaphthylen-7-yl)methanone], the IC50 is over 1000 nM. Consider `COCCn1c(-c2nc3cc(C(=O)N4CCC[C@@H](N)C4)cc4c3n2CCO4)cc2cccc(Cl)c21` [Compound 122, (R)-(3-aminopiperidin-1-yl)(2-(7-chloro-1-(2-methoxyethyl)-1H-indol-2-yl)-3,4-dihydro-5-oxa-1,2a-diazaacenaphthylen-7-yl)methanone], for which the 50% inhibitory concentration (IC50) was 100 to 1000 nM. For `N[C@@H]1CCCN(C(=O)c2cc3c4c(c2)nc(-c2cc5ccccc5n2Cc2ccc(CO)cc2)n4CCO3)C1` [Compound 123, (R)-(3-aminopiperidin-1-yl)(2-(1-(4-(hydroxymethyl)benzyl)-1H-indol-2-yl)-3,4-dihydro-5-oxa-1,2a-diazaacenaphthylen-7-yl)methanone trifluoroacetic acid salt] the value was 100 to 1000 nM; for `COc1ccc(Cn2c(-c3nc4cc(C(=O)N5CCC[C@@H](N)C5)cc5c4n3CCO5)cc3cccc(Cl)c32)cc1` [Compound 125, (R)-(3-aminopiperidin-1-yl)(2-(7-chloro-1-(4-methoxybenzyl)-1H-indol-2-yl)-3,4-dihydro-5-oxa-1,2a-diazaacenaphthylen-7-yl)methanone], under 100 nM; for `N[C@@H]1CCCN(C(=O)c2cc3c4c(c2)nc(-c2cc5ccccc5n2CC2CCOCC2)n4CCO3)C1` [Compound 126, (R)-(3-aminopiperidin-1-yl)(2-(1-((tetrahydro-2H-pyran-4-yl)methyl)-1H-indol-2-yl)-3,4-dihydro-5-oxa-1,2a-diazaacenaphthylen-7-yl)methanone], over 1000 nM.

Regarding `N[C@@H]1CCCN(C(=O)c2cc3c4c(c2)nc(-c2cc5ccccc5n2CC2CCC2)n4CCO3)C1` [Compound 127, (R)-(3-aminopiperidin-1-yl)(2-(1-(cyclobutylmethyl)-1H-indol-2-yl)-3,4-dihydro-5-oxa-1,2a-diazaacenaphthylen-7-yl)methanone], the IC50 lay within 100 to 1000 nM.

Consider `COc1ccc(Cn2c(-c3nc4cc(C(=O)N5CCC[C@@H](N)C5)cc5c4n3CCO5)cc3cc(F)ccc32)cc1` [Compound 132, (R)-(3-aminopiperidin-1-yl)(2-(5-fluoro-1-(4-methoxybenzyl)-1H-indol-2-yl)-3,4-dihydro-5-oxa-1,2a-diazaacenaphthylen-7-yl)methanone], for which the 50% inhibitory concentration (IC50) was over 1000 nM. As for `N[C@@H]1CCCN(C(=O)c2cc3c4c(c2)nc(-c2cc5ccccc5n2CC(F)F)n4CCO3)C1` [Compound 133, (R)-(3-aminopiperidin-1-yl)(2-(1-(2,2-difluoroethyl)-1H-indol-2-yl)-3,4-dihydro-5-oxa-1,2a-diazaacenaphthylen-7-yl)methanone], the figure is over 1000 nM; as for `COCCn1c(-c2nc3cc(C(=O)N4CCC[C@@H](N)C4)cc4c3n2CCO4)cc2cc(F)ccc21` [Compound 134, (R)-(3-aminopiperidin-1-yl)(2-(5-fluoro-1-(2-methoxyethyl)-1H-indol-2-yl)-3,4-dihydro-5-oxa-1,2a-diazaacenaphthylen-7-yl)methanone], 100 to 1000 nM; as for `N[C@@H]1CCCN(C(=O)c2cc3c4c(c2)nc(-c2cc5ccc(F)cc5n2Cc2ccc(F)cc2)n4CCO3)C1` [Compound 135, (R)-(3-aminopiperidin-1-yl)(2-(6-fluoro-1-(4-fluorobenzyl)-1H-indol-2-yl)-3,4-dihydro-5-oxa-1,2a-diazaacenaphthylen-7-yl)methanone], under 100 nM.

In the case of `COc1ccc(Cn2c(-c3nc4cc(C(=O)N5CCC[C@@H](N)C5)cc5c4n3CCO5)cc3ccc(F)cc32)cc1` [Compound 136, (R)-(3-aminopiperidin-1-yl)(2-(6-fluoro-1-(4-methoxybenzyl)-1H-indol-2-yl)-3,4-dihydro-5-oxa-1,2a-diazaacenaphthylen-7-yl)methanone], the IC50 was over 1000 nM. `COc1ccc2cc(-c3nc4cc(C(=O)N5CCC[C@@H](N)C5)cc5c4n3CCO5)n(Cc3ccc(F)cc3)c2c1` [Compound 137, (R)-(3-aminopiperidin-1-yl)(2-(1-(4-fluorobenzyl)-6-methoxy-1H-indol-2-yl)-3,4-dihydro-5-oxa-1,2a-diazaacenaphthylen-7-yl)methanone]: the IC50 was over 1000 nM.

For the compound `CC(C)Cn1c(-c2nc3cc(C(=O)N4CCC[C@@H](N)C4)cc4c3n2CCO4)cc2cccc(Cl)c21` [Compound 141, (R)-(3-aminopiperidin-1-yl)(2-(7-chloro-1-isobutyl-1H-indol-2-yl)-3,4-dihydro-5-oxa-1,2a-diazaacenaphthylen-7-yl)methanone], the IC50 was over 1000 nM. As for `N[C@@H]1CCCN(C(=O)c2cc3c4c(c2)nc(-c2cc5cc(/C=C/c6ccccc6)ccc5n2CC2CC2)n4CCO3)C1` [Compound 144, (R,E)-(3-aminopiperidin-1-yl)(2-(1-(cyclopropylmethyl)-5-styryl-1H-indol-2-yl)-3,4-dihydro-5-oxa-1,2a-diazaacenaphthylen-7-yl)methanone], the figure is under 100 nM; as for `Cc1csc(Cn2c(-c3nc4cc(C(=O)N5CCC[C@@H](N)C5)cc5c4n3CCO5)cc3ccccc32)n1` [Compound 145, (R)-(3-aminopiperidin-1-yl)(2-(1-((4-methylthiazol-2-yl)methyl)-1H-indol-2-yl)-3,4-dihydro-5-oxa-1,2a-diazaacenaphthylen-7-yl)methanone], under 100 nM; as for `COc1ccc2c(c1)cc(-c1nc3cc(C(=O)N4CCC[C@@H](N)C4)cc4c3n1CCO4)n2CC1CC1` [Compound 146, (R)-(3-aminopiperidin-1-yl)(2-(1-(cyclopropylmethyl)-5-methoxy-1H-indol-2-yl)-3,4-dihydro-5-oxa-1,2a-diazaacenaphthylen-7-yl)methanone], 100 to 1000 nM. Consider `N[C@@H]1CCCN(C(=O)c2cc3c4c(c2)nc(-c2cc5ccc(CO)cc5n2CC2CC2)n4CCO3)C1` [Compound 147, (R)-(3-aminopiperidin-1-yl)(2-(1-(cyclopropylmethyl)-6-(hydroxymethyl)-1H-indol-2-yl)-3,4-dihydro-5-oxa-1,2a-diazaacenaphthylen-7-yl) methanone], for which the half-inhibitory concentration (IC50) was 100 to 1000 nM. For the compound `N[C@@H]1CCCN(C(=O)c2cc3c4c(c2)nc(-c2cc5ccccc5n2CC2CC2)n4CCN3)C1` [Compound 149, (R)-(3-aminopiperidin-1-yl)(2-(1-(cyclopropylmethyl)-1H-indol-2-yl)-5,6-dihydro-4H-imidazo[1,5,4-de]quinoxalin-8-yl)methanone], the half-maximal inhibitory concentration (IC50) lay in the range of 100 to 1000 nM. Regarding `N[C@@H]1CCCN(C(=O)c2cc3c4c(c2)nc(-c2cc5cc(F)ccc5n2CC2CC2)n4CCN3)C1` [Compound 150, (R)-(3-aminopiperidin-1-yl)(2-(1-(cyclopropylmethyl)-5-fluoro-1H-indol-2-yl)-5,6-dihydro-4H-imidazo[1,5,4-de]quinoxalin-8-yl)methanone], the IC50 was in the range of 100 to 1000 nM. For the compound `N[C@@H]1CCCN(C(=O)c2cc3c4c(c2)nc(-c2cc5ccc(F)cc5n2CC2CC2)n4CCN3)C1` [Compound 151, (R)-(3-aminopiperidin-1-yl)(2-(1-(cyclopropylmethyl)-6-fluoro-1H-indol-2-yl)-5,6-dihydro-4H-imidazo[1,5,4-de]quinoxalin-8-yl)methanone], the half-maximal inhibitory concentration (IC50) was under 100 nM.

Turning to `N[C@@H]1CCCN(C(=O)c2cc3c4c(c2)nc(-c2cc5ccccc5n2Cc2cccnc2)n4CCN3)C1` [Compound 152, (R)-(3-aminopiperidin-1-yl)(2-(1-(pyridin-3-ylmethyl)-1H-indol-2-yl)-5,6-dihydro-4H-imidazo[1,5,4-de]quinoxalin-8-yl)methanone], the 50% inhibitory concentration (IC50) was under 100 nM. As for `N[C@@H]1CCCN(C(=O)c2cc3c4c(c2)nc(-c2cc5cc(Br)ccc5n2CC2CC2)n4CCN3)C1` [Compound 153, (R)-(3-aminopiperidin-1-yl)(2-(5-bromo-1-(cyclopropylmethyl)-1H-indol-2-yl)-5,6-dihydro-4H-imidazo[1,5,4-de]quinoxalin-8-yl)methanone], the IC50 was under 100 nM. As for `N[C@@H]1CCCN(C(=O)c2cc3c4c(c2)nc(-c2cc5ccccc5n2Cc2ccccc2F)n4CCN3)C1` [Compound 156, (R)-(3-aminopiperidin-1-yl)(2-(1-(2-fluorobenzyl)-1H-indol-2-yl)-5,6-dihydro-4H-imidazo[1,5,4-de]quinoxalin-8-yl)methanone], the figure is under 100 nM; as for `COc1ccc2cc(-c3nc4cc(C(=O)N5CCC[C@@H](N)C5)cc5c4n3CCN5)n(CC3CC3)c2c1` [Compound 159, (R)-(3-aminopiperidin-1-yl)(2-(1-(cyclopropylmethyl)-6-methoxy-1H-indol-2-yl)-5,6-dihydro-4H-imidazo[1,5,4-de]quinoxalin-8-yl)methanone], 100 to 1000 nM.
